Reference: patent US7074789B2, “Kinase inhibitors” (Amgen Inc., priority 1999, dated 2006)

Experiments:
Format in all cases: biochemical
Zap-70 = molecular target: T1, Zap-70 (Homo sapiens, UniProt P43403); experiment: Kinase inhibition assay (33P transfer), Zap-70; details: Table 3; for IC50: read-out: Zap-1
T1 construct: Kinases are expressed as either kinase domains or full length constructs; made in house
T1 sequence (P43403 1-619): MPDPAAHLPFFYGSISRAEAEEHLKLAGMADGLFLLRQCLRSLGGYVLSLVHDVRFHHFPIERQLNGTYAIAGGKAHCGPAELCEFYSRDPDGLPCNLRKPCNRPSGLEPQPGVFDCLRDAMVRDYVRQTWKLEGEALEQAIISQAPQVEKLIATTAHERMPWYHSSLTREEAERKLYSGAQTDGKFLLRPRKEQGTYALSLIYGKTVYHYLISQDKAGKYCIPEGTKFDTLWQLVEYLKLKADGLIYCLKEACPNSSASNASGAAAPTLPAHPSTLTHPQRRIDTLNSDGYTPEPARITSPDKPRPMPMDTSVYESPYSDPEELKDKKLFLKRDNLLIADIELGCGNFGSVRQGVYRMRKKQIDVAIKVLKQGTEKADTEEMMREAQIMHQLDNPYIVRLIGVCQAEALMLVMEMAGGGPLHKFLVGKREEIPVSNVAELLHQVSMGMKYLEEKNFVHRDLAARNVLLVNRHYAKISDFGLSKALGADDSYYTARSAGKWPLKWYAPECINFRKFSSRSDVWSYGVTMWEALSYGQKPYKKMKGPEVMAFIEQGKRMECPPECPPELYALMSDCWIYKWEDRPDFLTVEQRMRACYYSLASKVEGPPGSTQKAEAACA
Procedure, shortened: (§1)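 Kinase domains or full-length kinases, GST- or His-tagged and expressed in E. coli or baculovirus/High Five cells, transferred 33PO4 from ATP onto plate-bound poly(Glu,Tyr) 4:1 or poly(Arg,Ser) 3:1. After incubation, plates were washed with 0.5% phosphoric acid and counted by liquid scintillation.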

IGFR-1 = molecular target: T2, IGFR-1 (Homo sapiens, UniProt P08069); experiment: Kinase inhibition assay (33P transfer), IGFR-1; details: Table 2, kinase inhibition class
T2 construct: Kinases are expressed as either kinase domains or full length constructs; made in house
T2 sequence (P08069 31-1367): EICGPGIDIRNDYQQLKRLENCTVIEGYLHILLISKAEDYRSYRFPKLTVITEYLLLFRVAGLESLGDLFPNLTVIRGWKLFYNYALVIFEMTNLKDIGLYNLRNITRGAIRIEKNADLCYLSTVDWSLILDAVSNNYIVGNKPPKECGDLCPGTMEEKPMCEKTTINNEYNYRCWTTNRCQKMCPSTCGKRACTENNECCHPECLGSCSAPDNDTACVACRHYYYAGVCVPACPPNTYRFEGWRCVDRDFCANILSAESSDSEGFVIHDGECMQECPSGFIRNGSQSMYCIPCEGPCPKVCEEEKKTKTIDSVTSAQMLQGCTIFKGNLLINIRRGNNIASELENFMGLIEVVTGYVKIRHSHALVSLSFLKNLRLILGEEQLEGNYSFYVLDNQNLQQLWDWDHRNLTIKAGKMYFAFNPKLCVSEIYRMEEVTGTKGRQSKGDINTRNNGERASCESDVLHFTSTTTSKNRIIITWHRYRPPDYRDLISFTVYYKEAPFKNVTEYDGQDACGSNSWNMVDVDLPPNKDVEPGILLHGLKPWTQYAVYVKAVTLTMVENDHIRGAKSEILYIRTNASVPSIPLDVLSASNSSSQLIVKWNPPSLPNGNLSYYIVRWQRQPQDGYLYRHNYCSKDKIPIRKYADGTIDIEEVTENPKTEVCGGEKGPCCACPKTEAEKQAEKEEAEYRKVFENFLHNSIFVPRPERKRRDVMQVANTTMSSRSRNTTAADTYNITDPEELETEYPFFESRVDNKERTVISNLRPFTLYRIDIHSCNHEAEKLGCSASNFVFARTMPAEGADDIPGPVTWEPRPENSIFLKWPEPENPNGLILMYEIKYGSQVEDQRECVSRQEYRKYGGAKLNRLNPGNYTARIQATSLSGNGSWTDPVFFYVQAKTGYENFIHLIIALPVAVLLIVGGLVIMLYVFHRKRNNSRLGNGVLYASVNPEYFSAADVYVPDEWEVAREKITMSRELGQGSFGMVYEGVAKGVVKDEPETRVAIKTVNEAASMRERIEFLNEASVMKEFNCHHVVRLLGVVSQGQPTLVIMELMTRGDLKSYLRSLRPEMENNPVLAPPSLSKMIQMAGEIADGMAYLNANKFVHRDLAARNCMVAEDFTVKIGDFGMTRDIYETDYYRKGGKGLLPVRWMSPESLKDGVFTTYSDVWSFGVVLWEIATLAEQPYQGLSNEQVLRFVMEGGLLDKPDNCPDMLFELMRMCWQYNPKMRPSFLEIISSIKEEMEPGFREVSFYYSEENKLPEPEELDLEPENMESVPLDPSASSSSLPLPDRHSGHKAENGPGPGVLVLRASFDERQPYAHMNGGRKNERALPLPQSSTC

EPHB4 = molecular target: T3, EPHB4 (Homo sapiens, UniProt P54760); experiment: Kinase inhibition assay (33P transfer), EPHB4; details: for IC50: read-out: EPHB4-1
T3 construct: Kinases are expressed as either kinase domains or full length constructs; made in house
T3 sequence (P54760 16-987): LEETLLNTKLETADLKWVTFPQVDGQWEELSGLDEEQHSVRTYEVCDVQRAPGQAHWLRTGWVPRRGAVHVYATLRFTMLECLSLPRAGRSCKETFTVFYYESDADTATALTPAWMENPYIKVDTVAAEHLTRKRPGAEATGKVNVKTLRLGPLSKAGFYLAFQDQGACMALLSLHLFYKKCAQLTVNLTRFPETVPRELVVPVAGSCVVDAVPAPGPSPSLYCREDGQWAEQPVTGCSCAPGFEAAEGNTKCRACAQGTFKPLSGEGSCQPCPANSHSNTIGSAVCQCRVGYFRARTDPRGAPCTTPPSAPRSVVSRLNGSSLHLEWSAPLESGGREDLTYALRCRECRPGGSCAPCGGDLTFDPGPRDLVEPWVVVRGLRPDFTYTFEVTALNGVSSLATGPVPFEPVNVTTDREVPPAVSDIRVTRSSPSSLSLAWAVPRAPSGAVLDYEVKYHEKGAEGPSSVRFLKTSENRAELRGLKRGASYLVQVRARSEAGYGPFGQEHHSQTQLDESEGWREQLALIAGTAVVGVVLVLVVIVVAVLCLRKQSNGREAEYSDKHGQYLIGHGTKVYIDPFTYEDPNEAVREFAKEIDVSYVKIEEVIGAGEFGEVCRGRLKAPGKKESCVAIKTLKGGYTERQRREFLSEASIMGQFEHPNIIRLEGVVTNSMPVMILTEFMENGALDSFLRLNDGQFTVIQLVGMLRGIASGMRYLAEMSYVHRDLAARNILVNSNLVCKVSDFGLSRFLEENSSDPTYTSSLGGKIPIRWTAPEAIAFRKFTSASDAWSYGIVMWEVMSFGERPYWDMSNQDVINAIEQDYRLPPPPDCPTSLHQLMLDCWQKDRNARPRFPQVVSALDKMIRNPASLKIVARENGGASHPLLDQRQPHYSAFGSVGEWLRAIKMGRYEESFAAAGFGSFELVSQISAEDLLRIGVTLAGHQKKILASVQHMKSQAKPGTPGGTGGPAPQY

AKT = molecular target: T4, AKT (Homo sapiens, UniProt Q9Y243); experiment: Kinase inhibition assay (33P transfer), AKT; details: Table 2, kinase inhibition class; for IC50: read-out: AKT3-1
T4 construct: Kinases are expressed as either kinase domains or full length constructs; made in house
Procedure, shortened: as §1

Tek = molecular target: T5, Tek (Homo sapiens, UniProt Q02763); experiment: Kinase inhibition assay (33P transfer), Tek; details: read-out: Tek-1
T5 construct: Kinases are expressed as either kinase domains or full length constructs; made in house
T5 sequence (Q02763 23-1124, species assumed): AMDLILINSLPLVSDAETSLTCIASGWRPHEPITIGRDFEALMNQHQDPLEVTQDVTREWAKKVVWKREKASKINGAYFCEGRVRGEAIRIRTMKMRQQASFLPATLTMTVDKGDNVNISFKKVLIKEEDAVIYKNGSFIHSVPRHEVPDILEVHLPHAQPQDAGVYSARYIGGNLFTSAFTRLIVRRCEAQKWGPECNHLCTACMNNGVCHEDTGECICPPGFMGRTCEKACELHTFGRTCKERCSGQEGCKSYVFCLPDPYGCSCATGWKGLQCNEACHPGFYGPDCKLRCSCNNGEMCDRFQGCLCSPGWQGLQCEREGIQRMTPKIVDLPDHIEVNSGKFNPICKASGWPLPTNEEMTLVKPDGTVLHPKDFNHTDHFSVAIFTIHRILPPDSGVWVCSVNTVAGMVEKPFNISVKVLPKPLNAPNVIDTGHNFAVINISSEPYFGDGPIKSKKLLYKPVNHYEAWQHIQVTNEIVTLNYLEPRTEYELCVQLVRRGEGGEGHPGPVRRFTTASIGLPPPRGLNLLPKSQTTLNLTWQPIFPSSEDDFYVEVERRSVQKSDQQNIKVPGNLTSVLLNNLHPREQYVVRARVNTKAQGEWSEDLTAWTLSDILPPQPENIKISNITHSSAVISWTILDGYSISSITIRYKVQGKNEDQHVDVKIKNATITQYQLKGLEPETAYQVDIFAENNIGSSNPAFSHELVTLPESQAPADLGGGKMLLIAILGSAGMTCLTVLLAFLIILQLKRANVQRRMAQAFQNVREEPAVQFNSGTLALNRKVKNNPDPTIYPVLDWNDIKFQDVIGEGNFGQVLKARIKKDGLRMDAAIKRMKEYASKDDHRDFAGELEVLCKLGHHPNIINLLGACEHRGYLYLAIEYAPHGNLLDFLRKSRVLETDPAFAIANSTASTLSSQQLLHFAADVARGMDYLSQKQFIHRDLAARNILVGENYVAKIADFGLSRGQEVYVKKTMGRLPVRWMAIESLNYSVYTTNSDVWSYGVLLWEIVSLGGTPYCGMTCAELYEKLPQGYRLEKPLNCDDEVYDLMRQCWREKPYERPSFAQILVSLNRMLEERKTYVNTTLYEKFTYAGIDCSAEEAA
Procedure, shortened: (§2)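 Using immobilised substrate copolymers (poly(Glu,Tyr) 4:1; poly(Arg,Ser) 3:1) and [33P]ATP, purified fusion kinases were allowed to react; plates were then rinsed in 0.5% phosphoric acid and counted in a scintillation detector. Half-maximal inhibition of label transfer defines IC50.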

Lck = molecular target: T6, Lck (Homo sapiens, UniProt P06239); experiment: Kinase inhibition assay (33P transfer), Lck; details: Table 3; for IC50: read-out: Lck-1
T6 construct: Kinases are expressed as either kinase domains or full length constructs; made in house
Procedure, shortened: as §1

c-Met = molecular target: T7, c-Met (Homo sapiens, UniProt P08581); experiment: Kinase inhibition assay (33P transfer), c-Met; details: Table 2, kinase inhibition class; for IC50: read-out: Met-1
T7 construct: Kinases are expressed as either kinase domains or full length constructs; made in house
Procedure, shortened: as §2

Itk = molecular target: T8, Itk (Homo sapiens, UniProt Q08881); experiment: Kinase inhibition assay (33P transfer), Itk; details: Table 3; for IC50: read-out: Itk-1
T8 construct: Kinases are expressed as either kinase domains or full length constructs; made in house
T8 sequence (Q08881 1-620): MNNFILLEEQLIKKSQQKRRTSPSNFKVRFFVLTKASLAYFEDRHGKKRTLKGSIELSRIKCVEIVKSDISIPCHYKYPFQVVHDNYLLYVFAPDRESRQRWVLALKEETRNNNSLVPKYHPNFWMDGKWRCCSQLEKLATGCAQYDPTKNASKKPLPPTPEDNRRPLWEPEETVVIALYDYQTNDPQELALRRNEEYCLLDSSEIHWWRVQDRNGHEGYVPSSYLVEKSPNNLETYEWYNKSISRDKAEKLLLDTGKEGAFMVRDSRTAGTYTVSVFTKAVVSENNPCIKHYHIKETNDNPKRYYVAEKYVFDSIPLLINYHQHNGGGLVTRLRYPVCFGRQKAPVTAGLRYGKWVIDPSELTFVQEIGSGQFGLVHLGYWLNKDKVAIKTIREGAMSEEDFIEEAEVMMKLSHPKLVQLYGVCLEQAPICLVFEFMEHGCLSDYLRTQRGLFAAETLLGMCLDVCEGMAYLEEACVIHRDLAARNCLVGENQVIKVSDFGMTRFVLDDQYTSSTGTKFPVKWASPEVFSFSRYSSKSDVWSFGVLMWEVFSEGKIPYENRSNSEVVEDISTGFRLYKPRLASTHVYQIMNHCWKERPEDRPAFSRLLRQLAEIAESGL
Procedure, shortened: as §2

Kdr = molecular target: T9, Kdr (Homo sapiens, UniProt P35968); experiment: Kinase inhibition assay (33P transfer), Kdr; details: Table 3; for IC50: read-out: KDR-1
T9 construct: Kinases are expressed as either kinase domains or full length constructs; made in house
T9 sequence (P35968 20-1356, species assumed): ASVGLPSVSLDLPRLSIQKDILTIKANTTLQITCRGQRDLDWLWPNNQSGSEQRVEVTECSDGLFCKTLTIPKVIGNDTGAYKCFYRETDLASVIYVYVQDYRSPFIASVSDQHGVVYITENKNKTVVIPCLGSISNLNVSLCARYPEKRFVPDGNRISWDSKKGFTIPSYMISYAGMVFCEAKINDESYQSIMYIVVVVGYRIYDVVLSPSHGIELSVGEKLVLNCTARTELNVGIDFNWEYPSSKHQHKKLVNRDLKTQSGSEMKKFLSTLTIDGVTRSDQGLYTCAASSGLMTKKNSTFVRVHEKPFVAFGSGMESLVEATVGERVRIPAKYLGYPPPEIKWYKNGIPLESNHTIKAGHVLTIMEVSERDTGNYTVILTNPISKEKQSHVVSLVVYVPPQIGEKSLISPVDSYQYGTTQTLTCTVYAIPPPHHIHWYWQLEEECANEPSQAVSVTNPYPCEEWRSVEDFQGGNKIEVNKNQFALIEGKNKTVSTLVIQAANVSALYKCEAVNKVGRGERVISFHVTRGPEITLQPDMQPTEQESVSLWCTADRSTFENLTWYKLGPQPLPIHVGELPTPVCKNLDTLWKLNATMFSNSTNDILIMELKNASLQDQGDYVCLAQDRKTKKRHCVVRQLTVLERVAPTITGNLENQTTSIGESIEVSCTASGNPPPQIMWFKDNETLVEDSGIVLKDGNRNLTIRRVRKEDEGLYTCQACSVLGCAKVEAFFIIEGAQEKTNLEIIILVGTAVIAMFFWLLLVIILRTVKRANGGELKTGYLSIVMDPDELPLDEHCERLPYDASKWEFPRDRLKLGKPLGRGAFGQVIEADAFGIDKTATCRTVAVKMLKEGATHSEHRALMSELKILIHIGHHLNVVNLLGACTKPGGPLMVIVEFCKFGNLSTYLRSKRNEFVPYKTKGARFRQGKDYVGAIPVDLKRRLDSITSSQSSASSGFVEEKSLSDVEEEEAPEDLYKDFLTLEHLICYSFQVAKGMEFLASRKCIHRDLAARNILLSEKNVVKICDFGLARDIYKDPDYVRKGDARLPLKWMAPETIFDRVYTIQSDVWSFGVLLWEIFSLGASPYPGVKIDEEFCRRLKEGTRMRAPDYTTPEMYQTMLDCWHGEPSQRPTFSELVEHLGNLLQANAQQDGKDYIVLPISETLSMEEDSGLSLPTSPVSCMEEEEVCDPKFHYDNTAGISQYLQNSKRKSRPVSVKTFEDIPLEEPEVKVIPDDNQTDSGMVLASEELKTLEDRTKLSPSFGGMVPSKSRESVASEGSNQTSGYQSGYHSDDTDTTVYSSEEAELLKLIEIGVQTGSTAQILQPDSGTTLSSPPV
Procedure, shortened: as §1

EGFR = molecular target: T10, EGFR (Homo sapiens, UniProt P00533); experiment: Kinase inhibition assay (33P transfer), EGFR; details: Table 2, kinase inhibition class; for IC50: read-out: EGFR-1
T10 construct: Kinases are expressed as either kinase domains or full length constructs; made in house
T10 sequence (P00533 25-1210, species assumed): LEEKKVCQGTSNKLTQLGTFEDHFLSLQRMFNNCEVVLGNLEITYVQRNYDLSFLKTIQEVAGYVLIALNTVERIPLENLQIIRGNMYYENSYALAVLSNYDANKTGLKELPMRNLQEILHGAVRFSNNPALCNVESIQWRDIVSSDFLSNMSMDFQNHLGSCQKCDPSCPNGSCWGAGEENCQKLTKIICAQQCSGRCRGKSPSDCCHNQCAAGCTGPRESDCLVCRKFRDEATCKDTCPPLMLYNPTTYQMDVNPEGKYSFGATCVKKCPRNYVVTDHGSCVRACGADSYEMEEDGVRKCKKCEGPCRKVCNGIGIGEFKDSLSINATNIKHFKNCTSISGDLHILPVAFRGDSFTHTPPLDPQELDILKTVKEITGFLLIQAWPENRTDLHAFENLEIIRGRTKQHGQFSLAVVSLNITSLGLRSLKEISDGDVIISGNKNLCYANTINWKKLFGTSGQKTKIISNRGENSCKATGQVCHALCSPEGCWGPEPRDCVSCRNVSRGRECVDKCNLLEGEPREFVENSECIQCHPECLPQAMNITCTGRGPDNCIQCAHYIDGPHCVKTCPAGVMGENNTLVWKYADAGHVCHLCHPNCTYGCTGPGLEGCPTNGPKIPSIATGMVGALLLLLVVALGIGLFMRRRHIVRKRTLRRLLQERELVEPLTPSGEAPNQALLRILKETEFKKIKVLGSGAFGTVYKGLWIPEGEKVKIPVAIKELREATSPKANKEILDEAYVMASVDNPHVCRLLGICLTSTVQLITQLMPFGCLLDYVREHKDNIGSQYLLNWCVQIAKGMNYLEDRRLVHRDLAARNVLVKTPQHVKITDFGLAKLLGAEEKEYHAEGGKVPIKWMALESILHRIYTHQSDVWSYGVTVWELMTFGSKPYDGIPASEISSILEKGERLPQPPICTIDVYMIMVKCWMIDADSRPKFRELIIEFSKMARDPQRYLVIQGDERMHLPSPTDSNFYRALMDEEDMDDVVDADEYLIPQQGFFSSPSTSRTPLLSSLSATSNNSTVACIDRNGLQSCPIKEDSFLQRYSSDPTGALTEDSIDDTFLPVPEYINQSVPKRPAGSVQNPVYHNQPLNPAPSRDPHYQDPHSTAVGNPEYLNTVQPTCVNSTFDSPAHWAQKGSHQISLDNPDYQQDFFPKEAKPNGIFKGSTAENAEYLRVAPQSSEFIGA
Procedure, shortened: as §2

SMILES	IC50 (Zap-70) [µM]	IC50 (IGFR-1) [µM]	IC50 (EPHB4) [µM]	IC50 (AKT) [µM]	IC50 (Tek) [µM]	IC50 (Lck) [µM]	IC50 (c-Met) [µM]	IC50 (Itk) [µM]	IC50 (Kdr) [µM]	IC50 (EGFR) [µM]	Zap-1 (Zap-70)	IGFR-1 (IGFR-1)	EPHB4-1 (EPHB4)	AKT3-1 (AKT)	Lck-1 (Lck)	Met-1 (c-Met)	Itk-1 (Itk)	KDR-1 (Kdr)	EGFR-1 (EGFR)
COc1cc(NC(=O)Nc2ncnc(Nc3cc(OC)c(OC)c(OC)c3)n2)cc(OC)c1 [Compound 22]	> 9.86	> 9.86	> 9.86	> 9.86	7.67 to 9.86	> 9.86	> 9.86	> 9.86	> 9.86	> 9.86	–	–	–	–	–	–	–	–	–
COc1ccc(Nc2ncnc(Nc3ccc(Br)cc3F)n2)cc1OC [Compound 117]	8.33 to 10.7	> 10.7	8.33 to 10.7	5.71 to 8.33	> 10.7	5.71 to 8.33	8.33 to 10.7	> 10.7	0.952 to 5.71	5.71 to 8.33	–	–	–	–	–	–	–	–	–
c1ccc(-c2ncnc(Nc3ccc(OCCCN4CCOCC4)cc3)n2)cc1 [Compound 154]	> 11.5	1.02 to 6.13	8.94 to 11.5	> 11.5	> 11.5	> 11.5	> 11.5	> 11.5	1.02 to 6.13	> 11.5	–	–	–	–	–	–	–	–	–
COCCOc1ccc(Nc2ncnc(-c3ccccc3)n2)cc1 [Compound 155]	> 14	> 14	> 14	> 14	> 14	> 14	> 14	> 14	> 14	> 14	–	–	–	–	–	–	–	–	–
Oc1ccc(Nc2ncnc(Nc3ccc(OCc4ccccc4)cc3)n2)cc1 [Compound 158]	1.04 to 6.23	6.23 to 9.08	1.04 to 6.23	1.04 to 6.23	6.23 to 9.08	9.08 to 11.7	1.04 to 6.23	> 11.7	1.04 to 6.23	1.04 to 6.23	–	–	–	–	–	–	–	–	–
COc1ccc(Oc2ncnc(Nc3cc(OC)c(OC)c(OC)c3)n2)cc1 [Compound 174]	> 11.7	> 11.7	> 11.7	> 11.7	> 11.7	> 11.7	> 11.7	> 11.7	< 1.04	6.24 to 9.11	–	–	–	–	–	–	–	–	–
COc1cc(NC(=O)Nc2ncnc(-c3ccncc3)n2)cc(OC)c1OC [Compound 1118]	–	–	–	–	–	–	–	–	–	–	E (E>4.5 ug/mL)	E (E>4.5 ug/mL)	E (E>4.5 ug/mL)	E (E>4.5 ug/mL)	E (E>4.5 ug/mL)	E (E>4.5 ug/mL)	E (E>4.5 ug/mL)	E (E>4.5 ug/mL)	B (B>0.4 and <2.4 ug/mL)

Now from value to molecule, other results behind:

IC50 (Zap-70) [µM]	IC50 (IGFR-1) [µM]	IC50 (EPHB4) [µM]	IC50 (AKT) [µM]	IC50 (Tek) [µM]	IC50 (Lck) [µM]	IC50 (c-Met) [µM]	IC50 (Itk) [µM]	IC50 (Kdr) [µM]	IC50 (EGFR) [µM]	SMILES	Zap-1 (Zap-70)	IGFR-1 (IGFR-1)	EPHB4-1 (EPHB4)	AKT3-1 (AKT)	Lck-1 (Lck)	Met-1 (c-Met)	Itk-1 (Itk)	KDR-1 (Kdr)	EGFR-1 (EGFR)
> 11.3	> 11.3	> 11.3	> 11.3	> 11.3	> 11.3	> 11.3	> 11.3	> 11.3	> 11.3	COc1ccc(CNc2ncnc(Nc3cc(OC)c(OC)c(OC)c3)n2)cc1 [Compound 80]	–	–	–	–	–	–	–	–	–
> 10.6	> 10.6	> 10.6	> 10.6	> 10.6	0.942 to 5.65	> 10.6	> 10.6	0.942 to 5.65	> 10.6	COc1cc(Nc2ncnc(Nc3ccc(N(C)C(C)=O)cc3)n2)cc(OC)c1OC [Compound 81]	–	–	–	–	–	–	–	–	–
> 9.81	> 9.81	> 9.81	> 9.81	> 9.81	> 9.81	> 9.81	> 9.81	> 9.81	> 9.81	COc1cc(Nc2ncnc(Nc3ccc(NCc4ccccc4)cc3)n2)cc(OC)c1OC [Compound 93]	–	–	–	–	–	–	–	–	–
0.931 to 5.59	5.59 to 8.15	0.931 to 5.59	5.59 to 8.15	> 10.5	> 10.5	> 10.5	> 10.5	0.931 to 5.59	8.15 to 10.5	COc1cc(Nc2ncnc(Nc3ccc(-c4ccccc4)cc3)n2)cc(OC)c1OC [Compound 100]	–	–	–	–	–	–	–	–	–
> 12.4	6.62 to 9.66	1.1 to 6.62	1.1 to 6.62	> 12.4	> 12.4	> 12.4	> 12.4	> 12.4	> 12.4	COc1cc(Nc2ncnc(NN3CCOCC3)n2)cc(OC)c1OC [Compound 103]	–	–	–	–	–	–	–	–	–
> 10.1	> 10.1	> 10.1	> 10.1	> 10.1	> 10.1	0.898 to 5.39	> 10.1	0.898 to 5.39	0.898 to 5.39	COc1cc(Nc2ncnc(Nc3cccc(Oc4ccccc4)c3)n2)cc(OC)c1OC [Compound 105]	–	–	–	–	–	–	–	–	–
> 12	< 1.06	6.39 to 9.31	> 12	> 12	> 12	> 12	> 12	> 12	1.06 to 6.39	COc1ccc(Nc2ncnc(Nc3ccc(F)c(Cl)c3)n2)cc1OC [Compound 113]	–	–	–	–	–	–	–	–	–
> 12.5	> 12.5	> 12.5	> 12.5	> 12.5	> 12.5	9.68 to 12.5	> 12.5	1.11 to 6.64	> 12.5	COc1cc(Nc2ncnc(N3CCC(O)CC3)n2)cc(OC)c1OC [Compound 208]	–	–	–	–	–	–	–	–	–
> 12.5	> 12.5	> 12.5	> 12.5	> 12.5	> 12.5	> 12.5	> 12.5	> 12.5	> 12.5	COc1cc(Nc2ncnc(N3CCN(C)CC3)n2)cc(OC)c1OC [Compound 212]	–	–	–	–	–	–	–	–	–
